Entries after “also recorded” stand apart in the source; their conditions may differ.

The subject of one experiment is 417 cells. Description: Alamar Blue assay (apoptosis), 417 cells. In kind it is cell-based, mouse. The procedure:
(§1) Apoptosis rates were measured by Alamar Blue assays. The active ingredient of Alamar Blue is resazurin, a non-fluorescent dark blue indicator dye. It is able to permeate cells and is converted to resorufin, a fluorescent, bright red dye, in a reduction reaction by living (metabolically active) cells. The produced fluorescence is proportional to the number of metabolically active cells.
(§2) We incubated SR-786 and 417 cells treated with 0-20 μM imatinib with Alamar Blue for one hour at 37 degrees Celsius.

A further experiment concerns SR-786 cells. Description: Alamar Blue assay (apoptosis), SR-786 cells. In kind it is cell-based, human. Here is the method:
as §1, §2
(In general: Resazurin is reduced to fluorescent resorufin, in cell work by metabolically active cells.)

Experiment [1] concerns human ALK positive ALCL cell lines. The conditions noted are these: cited from earlier work.
Another experiment has as its target T1, NPM-ALK (Homo sapiens, UniProt Q9UM73).
T1 construct: the other entry of the earlier key: NPM1 (P06748, Nucleophosmin)
The conditions noted are these: cited from earlier work.

For experiment [2], the system named is murine NPM-ALK and PDGFRB positive cell line 417. Description: Cell number after three days culture with inhibitor, cell line 417. The conditions noted are these: different concentrations, three days in RPMI medium.
In experiment [3] the test system is murine NPM-ALK positive cell line CD4-417 tumors. Description: Murine xenograft model, CD4-417 cells in flank of SCID mice.
In experiment [4] the test system is human NPM-ALK positive and PDGFRB negative cell line SR-786. Description: Cell number after three days culture with inhibitor, cell line SR-786. The conditions noted are these: different concentrations, three days in RPMI medium.
For the next experiment, the system named is HD and ALCL. The conditions noted are these: cited from earlier work.
A further experiment has as its system human ACLC/HD-cell lines. The conditions noted are these: cited from earlier work.
A further experiment deals with Karpas-299 lymphomas. The conditions noted are these: cited from earlier work.
Another experiment has as its system CD30. The conditions noted are these: cited from earlier work.

T1 sequence (Q9UM73 with tags, fused parts or gaps): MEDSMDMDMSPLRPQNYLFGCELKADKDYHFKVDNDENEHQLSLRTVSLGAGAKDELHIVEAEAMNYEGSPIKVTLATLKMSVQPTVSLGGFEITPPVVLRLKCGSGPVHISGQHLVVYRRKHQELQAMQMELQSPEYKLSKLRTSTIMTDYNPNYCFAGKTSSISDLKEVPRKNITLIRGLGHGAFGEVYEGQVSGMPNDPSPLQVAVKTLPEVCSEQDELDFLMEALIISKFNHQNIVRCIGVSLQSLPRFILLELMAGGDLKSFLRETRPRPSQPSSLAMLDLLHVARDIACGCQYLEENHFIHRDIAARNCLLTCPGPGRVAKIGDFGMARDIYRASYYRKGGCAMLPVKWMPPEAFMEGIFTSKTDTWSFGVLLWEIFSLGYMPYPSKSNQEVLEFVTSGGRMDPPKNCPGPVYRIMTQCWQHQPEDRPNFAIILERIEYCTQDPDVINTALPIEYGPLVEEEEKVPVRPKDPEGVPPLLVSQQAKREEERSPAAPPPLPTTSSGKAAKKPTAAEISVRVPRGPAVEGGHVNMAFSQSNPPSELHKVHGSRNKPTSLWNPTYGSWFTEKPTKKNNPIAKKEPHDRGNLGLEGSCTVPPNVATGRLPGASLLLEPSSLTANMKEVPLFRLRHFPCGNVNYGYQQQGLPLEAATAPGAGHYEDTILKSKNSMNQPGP

With `Cc1ccc(NC(=O)c2ccc(CN3CCN(C)CC3)cc2)cc1Nc1nccc(-c2cccnc2)n1` [imatinib, 4-[(4-methylpiperazin-1-yl)methyl]-N-[4-methyl-3-[(4-pyridin-3-ylpyrimidin-2-yl)amino]phenyl]benzamide], in the experiment on 417 cells (0-10 μM, Alamar Blue one hour at 37 degrees Celsius), the “conversion of resazurin to resorufin, 417 cells at 0-10 μM” value is recorded as “responded similar to SR-786 cells”. The “conversion of resazurin to resorufin (color change), 417 cells at 20 μM” value in the experiment on 417 cells (20 μM, Alamar Blue one hour at 37 degrees Celsius) is “not able to induce the color change”. Besides, the “apoptosis by Alamar Blue, 417 cells at 20 μM” value in the experiment with 417 cells (20 μM, three days after treatment) is on record as “strongly increased; also recorded: high apoptosis”. Moreover, the “apoptosis by Alamar Blue, 417 cells, dose dependence” value in the experiment on 417 cells (in vitro, 0-20 μM) was “increased apoptosis rates; also recorded: dose dependent apoptosis”. For the same compound, the “conversion of resazurin to resorufin, SR-786 cells” value with SR-786 cells (0-20 μM, Alamar Blue one hour at 37 degrees Celsius) is given as “comparable rate, regardless of imatinib concentrations”. Further, the “apoptosis by Alamar Blue, SR-786 cells” value in the experiment with SR-786 cells (up to 20 μM, three days) was “unaffected”. Further, the “effect on ALCL cell lines” value in experiment [1] is “unable to show effects”. On NPM-ALK, the “binding to ALK” value is “unable to bind ALK” and the “sensitivity of NPM-ALK to imatinib treatment” value is “insensitive”. The “cell number (antiproliferative effect), cell line 417” value in experiment [2] is given as “increasingly impaired; also recorded: strongly react; also recorded: reduced cell numbers; also recorded: dose dependent reduction in cell number”.

For the compound `Cc1cn(-c2cc(NC(=O)c3ccc(C)c(Nc4nccc(-c5cccnc5)n4)c3)cc(C(F)(F)F)c2)cn1` [nilotinib, 4-methyl-N-[3-(4-methyl-1H-imidazol-1-yl)-5-(trifluoromethyl)phenyl]-3-[(4-pyridin-3-ylpyrimidin-2-yl)amino]benzamide], the “tumor weight vs untreated control tumors” value in experiment [3] (after 6 days of treatment) is “drastically reduced”. In addition, the tumor size reduction entry in experiment [3] (nilotinib treatment, xenografted mice) is “more than 59%”. For the same compound, the “cell number (antiproliferative effect), cell line 417” value in [2] is recorded as “strongly react; also recorded: dose dependent reduction in cell number”. For the same compound, the “cell number / proliferation rates, cell line SR-786” value in [4] is given as “remain unaffected”.

`CNC(=O)c1cc(Oc2ccc(NC(=O)Nc3ccc(Cl)c(C(F)(F)F)c3)cc2)ccn1` [sorafenib, 4-[4-[[4-chloro-3-(trifluoromethyl)phenyl]carbamoylamino]phenoxy]-N-methyl-pyridine-2-carboxamide]: the “in vivo treatment of HD and ALCL” value in the experiment with HD and ALCL is “not effective”. In addition, the “apoptosis in human ACLC/HD-cell lines” value in the experiment on human ACLC/HD-cell lines is given as “able to induce apoptosis”.

On to `COc1cc(N2CCC(N3CCN(C)CC3)CC2)ccc1Nc1ncc(Cl)c(Nc2ccccc2S(=O)(=O)C(C)C)n1` [NVP-TAE684], for which, in the experiment on Karpas-299 lymphomas, the “established Karpas-299 lymphomas in vivo” value is reported as “induced regression”. For the same compound, the “lymphomagenesis in two independent models of ALK-positive ALCL” value in the experiment on Karpas-299 lymphomas (in vivo) is reported as “suppress lymphomagenesis”. The CD30 expression entry with CD30 is “induced down-regulation”.

These data come from patent US8933037B2, “Methods involving PDGFRBETA inhibitors” (Medizinische Universitat Wien, priority 2009, dated 2015).
